pKi: −log10 of the molar value. Some results are limits rather than exact numbers.

The target in one experiment is T1, human GlyT1c transporter (Homo sapiens, UniProt P48067).
T1 construct: expressed in transfected cells; host or cells: CHO cells (recombinant; line hGlyT1c_5_CHO is named for the uptake assay)
T1 sequence (P48067 1-706): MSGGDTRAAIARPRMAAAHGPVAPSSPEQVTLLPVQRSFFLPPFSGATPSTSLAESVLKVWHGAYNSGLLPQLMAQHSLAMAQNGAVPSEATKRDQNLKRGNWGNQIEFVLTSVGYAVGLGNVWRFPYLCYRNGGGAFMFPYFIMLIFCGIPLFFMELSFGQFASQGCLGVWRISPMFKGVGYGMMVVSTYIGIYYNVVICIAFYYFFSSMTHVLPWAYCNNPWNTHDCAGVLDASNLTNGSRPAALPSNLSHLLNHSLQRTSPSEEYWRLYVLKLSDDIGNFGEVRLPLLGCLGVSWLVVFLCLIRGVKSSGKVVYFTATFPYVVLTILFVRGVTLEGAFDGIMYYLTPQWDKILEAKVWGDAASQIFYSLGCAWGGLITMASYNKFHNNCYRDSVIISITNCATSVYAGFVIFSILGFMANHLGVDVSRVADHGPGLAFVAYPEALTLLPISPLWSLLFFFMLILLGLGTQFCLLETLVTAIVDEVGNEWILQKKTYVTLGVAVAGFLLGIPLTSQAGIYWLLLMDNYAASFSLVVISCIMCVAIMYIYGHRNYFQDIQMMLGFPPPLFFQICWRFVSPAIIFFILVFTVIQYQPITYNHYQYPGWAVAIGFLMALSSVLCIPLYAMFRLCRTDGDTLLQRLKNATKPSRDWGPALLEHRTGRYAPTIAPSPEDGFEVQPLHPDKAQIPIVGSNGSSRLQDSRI
Kind of experiment: Radioligand binding assay using recombinant CHO cell membranes expressing human GlyT1. The conditions noted are these: radioligand binding to human GlyT1c transporter-expressing membranes. An excerpt: 2. Radioligand binding assays using recombinant CHO cell membranes expressing human GlyT1: […]
Turning to `Cn1cnc(S(=O)(=O)N2C[C@@H](Nc3ccnc(C(F)(F)F)c3)[C@H](c3ccccc3Cl)C2)c1` (relative stereo) [Example 259, N-{trans-4-(2-chlorophenyl)-1-[(1-methyl-1H-imidazol-4-yl)sulfonyl]pyrrolidin-3-yl}-2-(trifluoromethyl)pyridin-4-amine], the pKi is at least 6.00.

On to `Cn1cnc(S(=O)(=O)N2C[C@@H](Nc3cccc(Cl)c3)[C@H](c3ccccc3)C2)c1` (relative stereo) [Example 74, trans-N-(3-chlorophenyl)-1-[(1-methyl-1H-imidazol-4-yl)sulfonyl]-4-phenylpyrrolidin-3-amine], for which the pKi is at least 7.00.

For the molecule `Cn1cnc(S(=O)(=O)N2C[C@@H](C(=O)c3cc(F)cc(Cl)c3)[C@H](c3ccc(F)cc3)C2)c1` (relative stereo) [Example 361, (3-Chloro-5-fluorophenyl){trans-4-(4-fluorophenyl)-1-[(1-methyl-1H-imidazol-4-yl)sulfonyl]pyrrolidin-3-yl} methanone], the pKi was at least 6.00.

As to `Cn1cnc(S(=O)(=O)N2C[C@@H](C(=O)c3ccc(OC(F)(F)F)cc3)[C@H](c3ccc(F)cc3)C2)c1` (relative stereo) [Example 363, {Trans-4-(4-fluorophenyl)-1-[(1-methyl-1H-imidazol-4-yl)sulfonyl]pyrrolidin-3-yl}[4-(trifluoromethoxy)phenyl]methanone], the pKi is at least 7.00.

With `CCCOC(=O)N[C@H]1CN(S(=O)(=O)c2cn(C)cn2)C[C@@H]1c1ccccc1` [Example 542, propyl {(3R,4S)-1-[(1-methyl-1H-imidazol-4-yl)sulfonyl]-4-phenylpyrrolidin-3-yl}carbamate], the negative logarithm of the Ki (pKi) was at least 5.00.

For the molecule `Cn1cnc(S(=O)(=O)N2C[C@@H](NC(=O)c3cc(Cl)cc(Cl)c3)[C@H](c3ccccc3)C2)c1` (relative stereo) [Example 30, 3,5-dichloro-N-{trans-1-[(1-methyl-1H-imidazol-4-yl)sulfonyl]-4-phenylpyrrolidin-3-yl}benzamide], the negative logarithm of the Ki (pKi) was at least 5.00.

Take `Cn1cnc(S(=O)(=O)N2C[C@H](OCCNc3ccc(Cl)cc3)[C@@H](c3ccc(F)cc3)C2)c1` [Example 740, 4-chloro-N-[2-({(3R,4S)-4-(4-fluorophenyl)-1-[(1-methyl-1H-imidazol-4-yl)sulfonyl]pyrrolidin-3-yl}oxy)ethyl]aniline]: the pKi is at least 5.00.

For `COCC1(CN[C@H]2CN(S(=O)(=O)c3cn(C)cn3)C[C@@H]2c2ccccc2)CC1` [Example 590, (3R,4S)-N-{[1-(methoxymethyl)cyclopropyl]methyl}-1-[(1-methyl-1H-imidazol-4-yl)sulfonyl]-4-phenylpyrrolidin-3-amine], the pKi is at least 5.00.

`Cc1noc(C)c1S(=O)(=O)N1CC(Nc2ccc(F)c(F)c2)C(c2ccccc2)C1` (stereo not shown) [Example 513, N-(3,4-difluorophenyl)-1-[(3,5-dimethyl-1,2-oxazol-4-yl)sulfonyl]-4-phenylpyrrolidin-3-amine]: the negative logarithm of the Ki (pKi) was under 5.00.

Turning to `Cn1cnc(S(=O)(=O)N2C[C@@H](Nc3cc(F)cc(C(F)(F)F)c3)[C@H](c3ccc(F)cc3)C2)c1` (relative stereo) [Example 168, trans-4-(4-fluorophenyl)-N-[3-fluoro-5-(trifluoromethyl)phenyl]-1-[(1-methyl-1H-imidazol-4-yl)sulfonyl]pyrrolidin-3-amine], the pKi is at least 7.00.

On to `Cn1cnc(S(=O)(=O)N2C[C@@H](NCc3cccc(Cl)c3)[C@H](c3ccc(F)cc3)C2)c1` (relative stereo) [Example 261, trans-N-(3-chlorobenzyl)-4-(4-fluorophenyl)-1-[(1-methyl-1H-imidazol-4-yl)sulfonyl]pyrrolidin-3-amine], for which the pKi is at least 6.00.

As for `CCCC(CCN[C@H]1CN(S(=O)(=O)c2cn(C)cn2)C[C@@H]1c1ccccc1)OC` (stereo partly drawn) [Example 674, (3R,4S)-N-(3-methoxyhexyl)-1-[(1-methyl-1H-imidazol-4-yl)sulfonyl]-4-phenylpyrrolidin-3-amine], the pKi is at least 6.00.

For `Cn1cnc(S(=O)(=O)N2C[C@@H](C(=O)Nc3cc(C(F)(F)F)ccn3)[C@H](c3ccc(F)cc3)C2)c1` (relative stereo) [Example 369, Trans-4-(4-fluorophenyl)-1-[(1-methyl-1H-imidazol-4-yl)sulfonyl]-N-[4-(trifluoromethyl)pyridin-2-yl]pyrrolidine-3-carboxamide], the pKi is at least 6.00.

For the molecule `Cn1cnc(S(=O)(=O)N2C[C@@H](Nc3cc(F)ccc3F)[C@H](c3ccc(F)cc3)C2)c1` (relative stereo) [Example 164, trans-N-(2,5-difluorophenyl)-4-(4-fluorophenyl)-1-[(1-methyl-1H-imidazol-4-yl)sulfonyl]pyrrolidin-3-amine], the negative logarithm of the Ki (pKi) is at least 5.00.

With `Cn1cnc(S(=O)(=O)N2C[C@@H](NCc3cccnc3)[C@H](c3ccc(F)cc3)C2)c1` (relative stereo) [Example 269, trans-4-(4-fluorophenyl)-1-[(1-methyl-1H-imidazol-4-yl)sulfonyl]-N-(pyridin-3-ylmethyl)pyrrolidin-3-amine], the negative-log Ki (pKi) is at least 5.00.

For the molecule `Cc1ccc(CN[C@H]2CN(S(=O)(=O)c3cn(C)cn3)C[C@@H]2c2ccccc2)nc1` [Example 536, (3R,4S)-1-[(1-methyl-1H-imidazol-4-yl)sulfonyl]-N-[(5-methylpyridin-2-yl)methyl]-4-phenylpyrrolidin-3-amine], the negative logarithm of the Ki (pKi) is at least 6.00.

Regarding `Cn1cnc(S(=O)(=O)N2C[C@@H](Nc3cccc(C(F)(F)F)c3)[C@H](c3ccccc3)C2)c1` (relative stereo) [Example 67, trans-1-[(1-methyl-1H-imidazol-4-yl)sulfonyl]-4-phenyl-N-[3-(trifluoromethyl)phenyl]pyrrolidin-3-amine], the pKi is at least 8.00.

As to `Cn1cnc(S(=O)(=O)N2C[C@@H](NC(=O)c3cccc(Cl)c3)[C@H](c3ccccc3)C2)c1` (relative stereo) [Example 15, 3-chloro-N-{trans-1-[(1-methyl-1H-imidazol-4-yl)sulfonyl]-4-phenylpyrrolidin-3-yl}benzamide], the pKi was at least 5.00.

Staying with this experiment, now noted: radioligand binding, recombinant CHO cell membranes expressing human GlyT1c.
As to `CCCCCCNC1CN(S(=O)(=O)c2cn(C)cn2)CC1[C@H]1CCCO1` (stereo partly drawn) [Example 820, N-Hexyl-1-[(1-methyl-1H-imidazol-4-yl)sulfonyl]-4-[(2R)-tetrahydrofuran-2-yl]pyrrolidin-3-amine], the negative logarithm of the Ki (pKi) is at least 5.00.

Turning to `Cn1cnc(S(=O)(=O)N2C[C@@H](Nc3cccc(OCC(F)(F)F)c3)[C@H](C3CCCCO3)C2)c1` (relative stereo) [Example 816, Trans-1-[(1-methyl-1H-imidazol-4-yl)sulfonyl]-4-(tetrahydro-2H-pyran-2-yl)-N-[3-(2,2,2-trifluoroethoxy)phenyl]pyrrolidin-3-amine], the negative logarithm of the Ki (pKi) is at least 8.00.

For `Cn1cnc(S(=O)(=O)N2C[C@@H](Nc3cccc(C(F)(F)F)c3)[C@H](C3CCOC3)C2)c1` (relative stereo) [Example 827, trans-1-[(1-methyl-1H-imidazol-4-yl)sulfonyl]-4-(tetrahydrofuran-3-yl)-N-[3 - (trifluoromethyl)phenyl]pyrrolidin-3-amine], the negative-log Ki (pKi) is at least 6.00.

In the case of `Cn1cnc(S(=O)(=O)N2C[C@H](Nc3ccc4c(c3)N(Cc3ccccc3)CC4)[C@@H](c3ccccc3)C2)c1` [Example 826, 1-benzyl-N-{(3R,4S)-1-[(1-methyl-1H-imidazol-4-yl)sulfonyl]-4-phenylpyrrolidin-3-yl}-2,3-dihydro-1H-indol-6-amine], the pKi is at least 5.00.

As a reminder, the pKi is the negative decadic logarithm of the Ki, by convention in mol/L.

These data come from patent EP2970215B1, “PYRROLIDINE DERIVATIVES, PHARMACEUTICAL COMPOSITIONS CONTAINING THEM, AND THEIR USE IN THERAPY” (AbbVie Deutschland GmbH & Co. KG, priority 2013, dated 2014).
